Test results from the NIST ThermoML archive (doi:10.1016/j.jct.2009.06.022).
± gives the expanded uncertainty stated by the source.

Tests used:
[1] = molar enthalpy of vaporization or sublimation; conditions: 298.15 K; Crystal; Static calorimetry
[2] = Crystal; DTA
[3] = Molar enthalpy of transition or fusion; conditions: Crystal; DSC

molar enthalpy [1] [kcal/mol] | Normal melting temperature [2] [°C] | Molar enthalpy of transition or fusion [3] [kcal/mol] | Compound
25.6 ± 1.1 | 76.34 ± 0.44 | 5.03 ± 0.139 | O=C1CC(c2ccccc2)Oc2ccccc21 (stereo unspecified) [2,3-dihydroflavone]
25.9 ± 0.813 | 96.74 ± 0.44 | 4.86 ± 0.122 | O=c1cc(-c2ccccc2)oc2ccccc12 [flavone]
